# Assay results: patent publication US20250101032A1, “EXATECAN DERIVATIVES AND ANTIBODY-DRUG CONJUGATES THEREOF” (priority 2021, published 2025)
# Legend:
# NCI-N87 = assay: In vitro cytotoxicity assay (CellTiter-Glo), NCI-N87; format: cell-based, Human; details: Homo sapiens, NCI-N87, 144 h, read-out: Cytotoxicity IC50
# Description: (§1) Human tumor cell lines, SK-BR-3, NCI-H292, HT-29, MCF-7, NCI-N87, and FaDu were obtained from ATCC. NCI-H292, HT-29, MCF-7, and NCI-N87 cells were cultured in RPMI-1640 media (Gibco, Life Technologies) supplemented with 10% v/v heat inactivated FBS (Corning), FaDu cells were maintained in DMEM media (Gibco, Life Technologies) supplemented with 10% v/v heat inactivated FBS (Corning). SK-BR-3 cells were maintained in McCoys 5A medium (Gibco, Life Technologies) supplemented with 10% […] heat inactivated FBS (Corning) at 37° C. in a humidified incubator containing 5% CO2.
# (§2) Lyophilized compounds were dissolved in 100% dry DMSO, aliquots frozen and stored at −80° C. Concentration and purity of compound stock solutions in DMSO were determined by RP-HPLC Agilent 1100 platform with 1200 DAD and SofTA ELSD detectors, and the Agilent 6150 MS system (UV/VIS, ELSD purity and MS compound identity confirmation). Shimadzu 3.0 mm×30 mm XR ODS 2.2 μm column was run at 50° C., 1.5 mL/min. Solvent A: 0.1% Formic acid in water, Solvent B: 0.08% Formic acid in methanol-Gradient: 5%-100% B in 3.0 min, 100% solvent B for 0.3 min. Concentration of compounds in 100% DMSO determined by ELS ranged from 1-6 mM.
# (§3) Cells were plated in 96-well white flat-bottomed plates (Corning) at 2.0×10^3 cells per well in 100 μL culture medium. After incubation for 24 hours, test compounds were added at a range of concentrations as ten point serial dilution as duplicates or triplicates. Following further incubation for 6 days 37° C., 5% CO2, cell viability was assessed with the use of a CellTiter-Glo Luminescent Cell Viability Assay (Promega). Luminescence was measured using the GloMax instrument (Promega). […] For a subset of payloads, each treatment was independently repeated two to eight times, and IC50 values were averaged. […] Standard deviation (stdev) is shown as (N/A) for treatment performed once.
# FaDu = assay: In vitro cytotoxicity assay (CellTiter-Glo), FaDu; format: cell-based, Human; details: Homo sapiens, FaDu, 144 h, read-out: Cytotoxicity IC50
# Description: as §1, §2, §3
# MCF7 = assay: In vitro cytotoxicity assay (CellTiter-Glo), MCF7; format: cell-based, Human; details: Homo sapiens, MCF7, 144 h, read-out: Cytotoxicity IC50
# Description: as §1, §2, §3
# SKBR3 = assay: In vitro cytotoxicity assay (CellTiter-Glo), SKBR3; format: cell-based, Human; details: Homo sapiens, SK-BR-3, 144 h, read-out: Cytotoxicity IC50
# Description: as §1, §2, §3
# SKOV3 = assay: In vitro cytotoxicity assay (CellTiter-Glo), SKOV3; format: cell-based; details: Homo sapiens, SK-OV-3, 144 h, read-out: Cytotoxicity IC50
# Description: (§4) Lyophilized compounds were dissolved in 100% dry DMSO, aliquots frozen and stored at −80° C. […] Shimadzu 3.0 mm×30 mm XR ODS 2.2 μm column was run at 50° C., 1.5 mL/min. Solvent A: 0.1% Formic acid in water, Solvent B: 0.08% Formic acid in methanol-Gradient: 5%-100% B in 3.0 min, 100% solvent B for 0.3 min.
# as §3
# HT29 = assay: In vitro cytotoxicity assay (CellTiter-Glo), HT29; format: cell-based, Human; details: Homo sapiens, HT-29, 144 h, read-out: Cytotoxicity IC50
# Description: as §1, §2, §3
# physchem = details: 25 °C, pH 7.4, aqueous buffer, kinetic from dmso stock
# Description: In-vitro kinetic solubilities of the compounds in PBS pH 7.4 buffer at 25° C. were determined by diluting compounds from 100% dimethyl sulfoxide (DMSO) into PBS buffer and measuring absorbance at 490, 590 and 650 nm. Stock concentrations in 100% DMSO were provided at 1-6 mM in 100% DMSO. Kinetic solubilities were determined by diluting test compounds from 100% DMSO into PBS pH 7.4 buffer, as duplicate, 10 point 2-fold serial dilution starting at 100× dilution of stock DMS solution into PBS buffer in a clear, flat bottom polystyrene assay plates. Total assay volume was 200 microliters. Solutions were mixed by plate shaking, incubated for 30 m at 25° C., and absorbance was read at 490, 590 and 650 nm. […] in PBS buffer was used as a blank. For each test compound, average optical density (GD) at each concentration was determined by averaging the blank corrected sum of absorption at 490 nm, 590 nm and 650 nm, over duplicate measurements. Turbidity threshold optical density value was set as a sum of mean plus two standard deviations of the mean of absorbances at 490, 590 and 650 nm for 1% (v/v) DMSO in PBS pH 7.4 buffer. Highest soluble concentration (micromolar) corresponded to the highest concentration at which average optical density was below optical density value set for turbidity threshold (Table 4). Amiodarone and propranolol were used as low and high solubility controls respectively.
# NCI-H292 = assay: In vitro cytotoxicity assay (CellTiter-Glo), NCI-H292; format: cell-based, Human; details: Homo sapiens, NCI-H292, 144 h, read-out: Cytotoxicity IC50
# Description: as §1, §2, §3
# BXPC3 = assay: In vitro cytotoxicity assay (CellTiter-Glo), BXPC3; format: cell-based; details: Homo sapiens, BXPC-3, 144 h, read-out: Cytotoxicity IC50
# Description: as §4, §3
Structure (SMILES),IC50 (NCI-N87) [nM],IC50 (FaDu) [nM],IC50 (MCF7) [nM],IC50 (SKBR3) [nM],IC50 (SKOV3) [nM],IC50 (HT29) [nM],solubility at 30 min (physchem) [µM],IC50 (NCI-H292) [nM],IC50 (BXPC3) [nM]
CC[C@@]1(O)C(=O)OCc2c1cc1n(c2=O)Cc2c-1nc1cc(F)c(C)c3c1c2[C@@H](NC(=O)NCC(O)CO)CC3 (stereo partly drawn) [Compound 118],96.6,17.5,45.9,23.9,96.7,291,30,88.4,52.7
"CC[C@@]1(O)C(=O)OCc2c1cc1n(c2=O)Cc2c-1nc1cc(F)c(C)c3c1c2[C@@H](NC(=O)[C@@H]1C[C@H]1CO)CC3 (single isomer, unassigned) [Compound 111-A]",13.1,1.9,16.7,6,24.5,34.4,23,18,5.6
CC[C@@]1(O)C(=O)OCc2c1cc1n(c2=O)Cc2c-1nc1cc(F)c(C)c3c1c2[C@@H](NCCO)CC3 [Compound 105],1.6,1.3,1.4,0.9,1.8,2.1,25,1.7,0.6
CC[C@@]1(O)C(=O)OCc2c1cc1n(c2=O)Cc2c-1nc1cc(F)c(C)c3c1c2[C@@H](Nc1c(O)c(=O)c1=O)CC3 [Compound 129],300,92.9,79.3,169,265,282,22,208,134
CC[C@@]1(O)C(=O)OCc2c1cc1n(c2=O)Cc2c-1nc1cc(F)c(C)c3c1c2[C@@H](NC(=O)c1ccc(CO)o1)CC3 [Compound 103],17.2,1.5,4.6,6.9,26.5,14.4,7,6,6.4
CC[C@@]1(O)C(=O)OCc2c1cc1n(c2=O)Cc2c-1nc1cc(F)c(C)c3c1c2[C@@H](NCc1cnnn1CCO)CC3 [Compound 109],29.3,8.3,12.8,7.3,32.4,56.8,17,26.1,10.8
CC[C@@]1(O)C(=O)OCc2c1cc1n(c2=O)Cc2c-1nc1cc(F)c(C)c3c1c2[C@@H](N(CCO)C(C)=O)CC3 [Compound 136],40.2,5.2,18.4,23.7,98.4,36.8,23,16.3,24.9
CC[C@@]1(O)C(=O)OCc2c1cc1n(c2=O)Cc2c-1nc1cc(F)c(C)c3c1c2[C@@H](Nc1c(NC(CO)(CO)CO)c(=O)c1=O)CC3 [Compound 18],158,42.9,40.7,65.7,167,179,13,82.1,44.9
CC[C@@]1(O)C(=O)OCc2c1cc1n(c2=O)Cc2c-1nc1cc(F)c(C)c3c1c2[C@@H](NC(=O)CCC(=O)NCC(O)CO)CC3 (stereo partly drawn) [Compound 117],1450,234,342,474,1090,2910,30,888,412
CC[C@@]1(O)C(=O)OCc2c1cc1n(c2=O)Cc2c-1nc1cc(F)c(C)c3c1c2[C@@H](NC(=O)C1OC(O)C(O)C1O)CC3 (stereo partly drawn) [Compound 100],78.6,7,28.8,36,90.5,93.4,29,228,26.9
CC[C@@]1(O)C(=O)OCc2c1cc1n(c2=O)Cc2c-1nc1cc(F)c(C)c3c1c2[C@@H](NC(=O)CCC(=O)NCCO)CC3 [Compound 16],736,72,140,166,341,1140,22,290,149
CC[C@@]1(O)C(=O)OCc2c1cc1n(c2=O)Cc2c-1nc1cc(F)c(C)c3c1c2[C@@H](NS(=O)(=O)CCCO)CC3 [Compound 110],18.2,15.6,22.4,7.6,59.2,28.6,18,18.8,15.7
CC[C@@]1(O)C(=O)OCc2c1cc1n(c2=O)Cc2c-1nc1cc(F)c(C)c3c1c2[C@@H](NC(=O)NC(CO)(CO)CO)CC3 [Compound 48],43,2.8,11.8,12.6,77.8,63.6,28,27.1,20.3
